± gives the expanded uncertainty stated by the source.
Conditions: 298.15 K, Liquid, Vibrating tube method

- mass density (7640 kPa): 844 ± 0.7 kg/m3
- mass density (10000 kPa): 845.6 ± 0.7 kg/m3
SMILES: C=C(C)C1CC=C(C)CC1 (configuration not stated) [1-methyl-4-(1-methylethenyl)cyclohexene]
